Several values for one entry are separate records, joined by “and”; a condition that tells them apart may be missing. Equal entries are not always repeated. Where two headings read alike, the source gives them in different places.

Series [1] in a line: Side-chain acidity: pKa by 1H NMR titration of free amino acids. It counts as physicochemical. The following applies: for pKa: aqueous KH2PO4 solution titrated with sodium hydroxide; for pKa of the phenolic side-chain: experimental error ±0.15. The protocol:
10–20 mg of an amino acid, 50 mg of KH2PO4 was dissolved in 15 ml of water and titrated by sodium hydroxide solution to distinct pH values. 500 μl were taken to NMR tubes, 50 μl deuterium oxidewas added and ^1H NMR spectra were measured using W5 pulse tray water suppression at 500 MHz frequency. The chemical shifts were plotted against pH and analyzed using Henderson-Hasselbalch equation to deliver the pKa values. Experimental error ±0.15.

The target of series [2] is T1, MjTyrRS variants (Methanocaldococcus jannaschii, UniProt Q57834, D158A/F108N/H70G/L162C/L65E/Y32V).
T1 construct: expressed in transfected cells
The series can be described thus: Intact cell fluorescence assay of HYs incorporation into SUMO-sfGFP. The class given is cell-based. The following applies: Synthetase C64RS. The procedure:
(§1) The intact cell fluorescence assay was performed to approximately compare the Br2Y and Cl2Y incorporation efficiency of screened MjTyrRSs as well as to estimate their promiscuity against other Tyr analogues. Since the gene expression of SUMO-sfGFP was driven by T5 promoter on the one round positive selection plasmid, SUMO-sfGFP can be directly expressed in DH10b strain. […] Next day, an overnight culture was inoculated in a well at a ratio of 1:100 containing 300 μL TB medium supplemented with 50 μg/mL Kan,100 μg/mL Amp, 0.5 mM IPTG as well as 1 mM HYs while the corresponding control lacked the HYs. Cells were grown in 96 well plates (Ibidi) with orbital shaking (2 mm amplitude) for 24 h at 37 °C covered with a gas-permeable foil (Sigma Aldrich, Taufkirchen, Germany). […] After 24 h incubation, the optimal density and fluorescence was measured via top reading after the gas-permeable foil was removed. Each measurement was done in triplicate.

In series [3] the target is T2, MjTyrRS variants (Methanocaldococcus jannaschii, UniProt Q57834, D158A/F108Q/H70G/L162N/L65E/Q109C/Y32G).
T2 construct: expressed in transfected cells
The series is described as above. The class given is cell-based. Conditions: for Fluorescence Instensity: Synthetase B48RS; for Incorporation efficiency (sfGFP fluorescence) versus control without HYs additions: mutant B48RS, 1 mM HY, E. coli DH10b. The protocol: as §1

For series [4], the system named is MjTyrRS variants. The series is described as above. The class given is cell-based, Methanocaldococcus jannaschii. The procedure:
as §1

Another series addresses FtsZ-YFP-mts (Escherichia coli, UniProt P0A9A6). More on the design: made in house; host or cells: E. coli BL21(DE3) for the wild type. Conditions: intensity line profile. The procedure:
1,2-dioleoyl-sn-glycero-3-phosphocholine (DOPC):1,2-dioleoyl-sn-glycero-3-phospho-(1’-rac-glycerol) (DOPG), 70:30 mol % mixture, was dissolved in chloroform in a quartz container, then dehumidified under a gas nitrogen stream. Chloroform traces were further removed through desiccation (1 h). Afterwards, the lipid film was hydrated to a final concentration of 4 mg/ml in supported lipid bilayers (SLB) buffer (50 mM Tris-HCl at pH 7.5, 150 mM KCl), and incubated at 37 °C for 30 min. The lipid film was then completely resuspended by vortexing rigorously to obtain multilamellar vesicles of different sizes. This mixture was then placed in a bath sonicator where shear forces help to reduce the size of the vesicles, giving rise to small unilamellar vesicles (SUVs). The SUV dispersion were stored at −20 °C as 20 µl aliquots.
Glass coverslips (1.5#, 24 x 24 mm) were cleaned by piranha solution overnight, followed by extensive washing with milliQ H2O. Then glass coverslips were blown dry with compressed air. The reaction chamber was prepared by attaching a plastic ring on a cleaned glass coverslip using ultraviolet glue (Thorlabs No. 68). For supported lipid bilayer formation, the SUV dispersion was diluted in SLB buffer to 0.5 mg/ml, of which 75 µl was added to the reaction chamber. Adding CaCl2 to a final concentration of 3 mM induced fusion of the vesicles and the formation of a lipid bilayer on coversilde. After 20 min of incubation at 37 °C, the sample was rinsed with 2 ml pre-warmed SLB buffer.
Polymerization was induced by adding 4 mM GTP.
The UltimateFocus feature of DeltaVision Elite maintains the focus plane constant in time. […] Fluorescence imaging was performed using a standard FITC filter set. Images were acquired with a PCO sCMOS 5.5 camera (PCO, Germany) controlled by the softWoRx Software (GE Healthcare Life Sciences, Germany). For time-lapse experiments, images were acquired every 3 s with a 0.05 s exposure time and light illumination shuttered between acquisitions.

The mark [5] stands for this setting: experimental error ±0.15, read-out: Ammonium pKa.
Where [6] appears, read: experimental error ±0.15, read-out: pKa of the phenolic side-chain.

T2 sequence (Q57834 whole entry Y32G/L65E/H70G/F108Q/Q109C/D158A/L162N): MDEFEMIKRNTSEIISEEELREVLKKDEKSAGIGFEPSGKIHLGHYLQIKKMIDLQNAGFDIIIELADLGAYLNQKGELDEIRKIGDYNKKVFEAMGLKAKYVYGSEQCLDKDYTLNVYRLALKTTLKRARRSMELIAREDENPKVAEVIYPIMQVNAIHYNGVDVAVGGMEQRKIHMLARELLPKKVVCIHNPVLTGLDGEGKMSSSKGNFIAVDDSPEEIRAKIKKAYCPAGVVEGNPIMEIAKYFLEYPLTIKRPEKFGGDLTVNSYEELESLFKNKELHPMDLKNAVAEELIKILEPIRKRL
Sequence of FtsZ-YFP-mts (P0A9A6 1-366): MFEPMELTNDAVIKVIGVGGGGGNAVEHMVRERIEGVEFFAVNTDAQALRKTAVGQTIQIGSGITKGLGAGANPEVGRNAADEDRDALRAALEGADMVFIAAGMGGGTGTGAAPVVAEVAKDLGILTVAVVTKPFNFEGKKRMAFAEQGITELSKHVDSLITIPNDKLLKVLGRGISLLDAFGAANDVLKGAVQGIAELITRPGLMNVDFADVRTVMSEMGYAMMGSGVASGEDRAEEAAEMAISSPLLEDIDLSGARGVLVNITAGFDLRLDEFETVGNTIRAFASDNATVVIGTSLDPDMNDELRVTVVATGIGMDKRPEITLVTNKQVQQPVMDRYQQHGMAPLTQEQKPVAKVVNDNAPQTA
T1 sequence (Q57834 whole entry Y32V/L65E/H70G/F108N/D158A/L162C): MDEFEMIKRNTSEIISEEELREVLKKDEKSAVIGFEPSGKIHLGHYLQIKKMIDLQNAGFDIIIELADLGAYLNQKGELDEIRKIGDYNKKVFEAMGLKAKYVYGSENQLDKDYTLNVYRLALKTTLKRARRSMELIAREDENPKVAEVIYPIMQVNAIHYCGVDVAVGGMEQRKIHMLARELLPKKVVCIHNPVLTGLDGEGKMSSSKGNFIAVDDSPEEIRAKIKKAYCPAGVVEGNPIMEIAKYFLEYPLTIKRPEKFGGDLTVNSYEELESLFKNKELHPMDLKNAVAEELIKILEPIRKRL

The pKa is the pH at which an ionisable group is half protonated. `N[C@@H](Cc1ccc(O)c(Cl)c1)C(=O)O` [ClY, 3-chloro-L-tyrosine]: the pKa was found to be 9.5 in series [1] (setting [5]) and 8.3 in series [1] (setting [6]). The “pKa of the phenolic side-chain” value in series [1] stood at 8.31. Also, the “Fluorescence Instensity” value at MjTyrRS variants [2] was 0.3514 a.u. and 0.3883 a.u. and 0.3147 a.u; at MjTyrRS variants [3] it was 0.5472 a.u. and 0.654 a.u. and 0.4364 a.u; in the series with MjTyrRS variants [4] (Synthetase B12RS) it was 0.3856 a.u. and 0.4561 a.u. and 0.2986 a.u; in the series on MjTyrRS variants [4] (Synthetase B37RS), 0.2734 a.u. and 0.2944 a.u. and 0.2525 a.u; in the series with MjTyrRS variants [4] (Synthetase C5RS), 0.8727 a.u. and 1 a.u. and 0.7434 a.u; with MjTyrRS variants [4] (Synthetase C45RS), 0.8577 a.u. and 0.9724 a.u. and 0.7484 a.u. The “Fluorescence Instensity” value in the series on MjTyrRS variants [4] (Synthetase C61RS) is 0.5458 a.u. and 0.6071 a.u. and 0.5015 a.u.

In the case of `N[C@@H](Cc1ccc(O)cc1)C(=O)O` [Y, tyrosine], the “Fluorescence Instensity” value at MjTyrRS variants [2] was 0.01243 a.u. and 0.01248 a.u. and 0.01236 a.u; at MjTyrRS variants [3], 0.00506 a.u. and 0.00513 a.u. and 0.00494 a.u; with MjTyrRS variants [4] (Synthetase B4RS), 0.06037 a.u. and 0.07682 a.u. and 0.04915 a.u; with MjTyrRS variants [4] (Synthetase B37RS), 0.1466 a.u. and 0.1756 a.u. and 0.1118 a.u; in the series on MjTyrRS variants [4] (Synthetase B39RS), 0.1833 a.u. and 0.2205 a.u. and 0.1319 a.u; in the series on MjTyrRS variants [4] (Synthetase C5RS), 0.01571 a.u. and 0.01574 a.u. and 0.0156 a.u. In addition, the Gray value at FtsZ-YFP-mts (Distance(um) 5.15845) stood at 0.2436; at FtsZ-YFP-mts (Distance(um) 5.17427), 0.2678; on FtsZ-YFP-mts (Distance(um) 5.1901), 0.2809; at FtsZ-YFP-mts (Distance(um) 5.20592), 0.2851; at FtsZ-YFP-mts (Distance(um) 5.22175) it was 0.3113; at FtsZ-YFP-mts (Distance(um) 5.23757), 0.3327. Besides, the Gray value at FtsZ-YFP-mts (Distance(um) 5.25339) is reported as 0.3531; at FtsZ-YFP-mts (Distance(um) 5.26922), 0.3835; on FtsZ-YFP-mts (Distance(um) 5.28504) it was 0.428; on FtsZ-YFP-mts (Distance(um) 5.30086), 0.443; at FtsZ-YFP-mts (Distance(um) 5.31669), 0.4411; on FtsZ-YFP-mts (Distance(um) 5.33251) it was 0.4633. In addition, the Gray value on FtsZ-YFP-mts (Distance(um) 5.34833) is 0.4809; on FtsZ-YFP-mts (Distance(um) 5.36416), 0.4782; on FtsZ-YFP-mts (Distance(um) 5.37998) it was 0.498; on FtsZ-YFP-mts (Distance(um) 5.3958), 0.5435; at FtsZ-YFP-mts (Distance(um) 5.41163), 0.5554; at FtsZ-YFP-mts (Distance(um) 5.42745), 0.5565. The Gray value at FtsZ-YFP-mts (Distance(um) 5.44327) stood at 0.5888; on FtsZ-YFP-mts (Distance(um) 5.4591) it was 0.6168; at FtsZ-YFP-mts (Distance(um) 5.47492), 0.6475; on FtsZ-YFP-mts (Distance(um) 5.49074), 0.6743; at FtsZ-YFP-mts (Distance(um) 5.50657) it was 0.698; at FtsZ-YFP-mts (Distance(um) 5.52239), 0.7626. The Gray value at FtsZ-YFP-mts (Distance(um) 5.53821) was determined as 0.7361; at FtsZ-YFP-mts (Distance(um) 5.55404), 0.7938; at FtsZ-YFP-mts (Distance(um) 5.56986) it was 0.8828; on FtsZ-YFP-mts (Distance(um) 5.58569) it was 0.899; at FtsZ-YFP-mts (Distance(um) 5.60151), 0.8493; at FtsZ-YFP-mts (Distance(um) 5.61733), 0.8767. For the same compound, the Gray value is listed as 0.9446 on FtsZ-YFP-mts (Distance(um) 5.63316); 1 at FtsZ-YFP-mts (Distance(um) 5.64898); 0.9652 at FtsZ-YFP-mts (Distance(um) 5.6648); 0.9584 on FtsZ-YFP-mts (Distance(um) 5.68063); 0.9755 at FtsZ-YFP-mts (Distance(um) 5.69645); 0.9816 at FtsZ-YFP-mts (Distance(um) 5.71227). Moreover, the Gray value stood at 0.9099 on FtsZ-YFP-mts (Distance(um) 5.7281); 0.8492 at FtsZ-YFP-mts (Distance(um) 5.74392); 0.8638 at FtsZ-YFP-mts (Distance(um) 5.75974); 0.7917 at FtsZ-YFP-mts (Distance(um) 5.77557); 0.7498 on FtsZ-YFP-mts (Distance(um) 5.79139); 0.6513 on FtsZ-YFP-mts (Distance(um) 5.80721).

In the case of `N[C@@H](Cc1cc(Cl)c(O)c(Cl)c1)C(=O)O` [Cl2Y, 3,5-dichloro-L-tyrosine], the results for the pKa in series [1] (setting [5]) and in series [1] (setting [6]) were 9.4 and 6.5, respectively. For the same compound, in series [1], the “pKa of the phenolic side-chain” value is listed as 6.52. For the same compound, the “Fluorescence Instensity” value at MjTyrRS variants [2] was 0.3285 a.u. and 0.3594 a.u. and 0.2924 a.u; on MjTyrRS variants [3], 0.5689 a.u. and 0.6362 a.u. and 0.4688 a.u; in the series on MjTyrRS variants [4] (Synthetase B4RS), 0.07529 a.u. and 0.09709 a.u. and 0.05112 a.u; in the series with MjTyrRS variants [4] (Synthetase B12RS), 0.3851 a.u. and 0.4746 a.u. and 0.2926 a.u; in the series on MjTyrRS variants [4] (Synthetase B37RS), 0.3145 a.u. and 0.3721 a.u. and 0.2575 a.u; in the series on MjTyrRS variants [4] (Synthetase B39RS) it was 0.2554 a.u. and 0.3069 a.u. and 0.2029 a.u. Besides, the “Fluorescence Instensity” value in the series on MjTyrRS variants [4] (Synthetase C5RS) is 0.7019 a.u. and 0.7995 a.u. and 0.5915 a.u; in the series with MjTyrRS variants [4] (Synthetase C45RS), 0.8209 a.u. and 0.9248 a.u. and 0.7159 a.u; with MjTyrRS variants [4] (Synthetase C61RS), 0.5873 a.u. and 0.6501 a.u. and 0.5303 a.u. Also, the “Incorporation efficiency (sfGFP fluorescence) versus control without HYs additions” value at MjTyrRS variants [3] was “more than 100 fold”.

`N[C@@H](Cc1ccc(O)c(Br)c1)C(=O)O` [BrY, 3-bromo-L-tyrosine]: the results for the pKa in series [1] (setting [5]) and in series [1] (setting [6]) were 9.52 and 8.3, respectively. The “pKa of the phenolic side-chain” value in series [1] is 8.29. Besides, the “Fluorescence Instensity” value is 0.3329 a.u. and 0.3931 a.u. and 0.2701 a.u at MjTyrRS variants [2]; 0.5063 a.u. and 0.6051 a.u. and 0.4087 a.u at MjTyrRS variants [3]; 0.06278 a.u. and 0.07689 a.u. and 0.04597 a.u with MjTyrRS variants [4] (Synthetase B4RS); 0.408 a.u. and 0.4614 a.u. and 0.3514 a.u with MjTyrRS variants [4] (Synthetase B12RS); 0.2591 a.u. and 0.2929 a.u. and 0.2246 a.u with MjTyrRS variants [4] (Synthetase B37RS); 0.7502 a.u. and 0.845 a.u. and 0.6301 a.u in the series with MjTyrRS variants [4] (Synthetase C5RS). Further, the “Fluorescence Instensity” value in the series on MjTyrRS variants [4] (Synthetase C45RS) is 0.7918 a.u. and 0.9328 a.u. and 0.6597 a.u; in the series with MjTyrRS variants [4] (Synthetase C61RS), 0.2377 a.u. and 0.2625 a.u. and 0.2104 a.u. Further, the “Incorporation efficiency (sfGFP fluorescence) versus control without HYs additions” value on MjTyrRS variants [3] is “more than 100 fold”.

Source of the values: article PMC9385671 (Nature Communications, 2022).
